# From patent US20220370001A1, “INTESTINAL DIAGNOSTIC SCREENING DEVICE AND METHOD FOR TARGETED GASTROINTESTINAL THERAPY” (AJM MED-I-CAPS LTD, priority 2019, published 2022)
# Columns and labels:
# [1] = Fluorescence excitation and emission spectra; assay type: physicochemical
# Excerpt: FIG. 2A is a graph of Near-Infra-Red fluorescence absorbance and emission spectra of CF750 at varying wavelengths, according to an example embodiment of the present disclosure. CF750 has a NIRF peak excitation (solid line) and a peak emission (dotted line) at 760 nm and 780 nm, respectively. Likewise, FIG. 2B is a graph of near-infra-red fluorescence absorbance and emission spectra of IRDye® CW800, according to an example embodiment of the present disclosure. IRDye® CW800 has a peak NIRF excitation and a peak NIRF emission at 774 nm and 789 nm, respectively. FIG. 2C is a graph of absorbance and emission spectra of anticancer drug doxorubicin at varying wavelengths, according to an example embodiment of the present disclosure. Doxorubicin has a peak excitation and a peak emission at 470 nm and 550 nm, respectively.
# DSA (3 mg) is mixed with 800 μL of 1:1 dichloromethane and methanol in a glass vial. IRDye® 800CW NHS ester (0.5 mg) was dissolved in methanol (200 μL) then immediately combined with the lipid solution. The mixture is covered to protect it from light and left on a vortex mixer for 2.5 h. The solvent is then reduced in vacuum, dissolved in minimal amount of chloroform and applied to a silica micro-column (˜3 mL) also in chloroform. The unbound fraction is reapplied several times, before elution and washing with the same solvent. Excess DSA and unreacted dye material is retained on the column and the latter is estimated at <10% of the coloured fraction. The unbound product is dried to a film and stored as a solution in 1 mL chloroform.
# [2] = reported value for the free dye; cited from earlier work
peak emission (Emmax) [1],peak excitation (Exmax) [1],Compound,"Emmax, reported value [2]","Exmax, reported value [2]"
550 nm,470 nm,"COc1cccc2c1C(=O)c1c(O)c3c(c(O)c1C2=O)C[C@@](O)(C(=O)CO)C[C@@H]3O[C@H]1C[C@H](N)[C@H](O)[C@H](C)O1 [Doxorubicin, doxorubicin]",,
789 nm,774 nm,CC1(C)C(/C=C/C2=C(Oc3ccc(S(=O)(=O)O)cc3)C(=C/C=C3/N(CCCCS(=O)(=O)O)c4ccc(S(=O)(=O)[O-])cc4C3(C)C)/CCC2)=[N+](CCCCCC(=O)O)c2ccc(S(=O)(=O)O)cc21 [IRDye® CW800],789 nm,774 nm
